Measured values from the supplement of paper PMC11451515.

Test system: SEM cells
Test: cell viability relative to DMSO control; higher = less cytotoxic
Details: 48 h
Method in brief: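 NOMO1 or SEM (500 cells/well) or P12-Ichikawa (1000 cells/well) leukemia cells were adapted for at least four passages in each medium. They were seeded in 1536-well plates (5 μl) and pin-dosed with library compounds in DMSO over an 11-point threefold series, 47 μM to 0.79 nM. CellTiter-Glo One luminescence was read after 48 h at 37°C. Viability is the per-plate percentage relative to DMSO wells, with cell-free wells as background.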

NC1=C(Cl)C(=CC=N1)OC2=C(F)C=C(NC(=O)\C3=C\N\C=C(C3=O)\C4=CC=C(F)C=C4)C=C2
cell viability [%]
Details | HPLM + 10% dialyzed FBS | RPMI 5 mM glucose + 10% FBS | RPMI 5 mM glucose + 10% dialyzed FBS
0.000781 µM | 118 | 129 | 140
0.00234 µM | 107 | 113 | 103
0.00702 µM | 121 | 115 | 115
0.0211 µM | 72.2 | 79.2 | 65.7
0.0632 µM | 92.6 | 76 | 60
0.19 µM | 72.6 | 70.5 | 57.7
0.569 µM | 64.4 | 65.3 | 59.1
1.71 µM | 64 | 76.2 | 59.5
5.12 µM | 58.8 | 49 | 57.9
15.4 µM | 64.1 | 46.7 | 58.5
46.1 µM | 11.5 | 3.66 | 4.6
